Where two headings read alike, the source gives them in different places.
What was measured:
A549 = assay: MTT assay, cell proliferation; format: cell-based; details: 24 h, read-out: IC50, inhibition of cell proliferation
Procedure: (§1) HepG2, HCT116, HeLa and LO2 cell lines were cultured in DMEM containing 10% fetal bovine serum (FBS), 100 IU/mL penicillin and 100 µg/mL streptomycin; A549 and K562 cell lines were cultured in RPMI 1640 medium containing 10% fetal bovine serum (FBS), 100 IU/mL penicillin and 100 µg/mL streptomycin; Human umbilical vein endothelial cells (HUVECs) were cultured on gelatin-coated culture flasks in M-199 medium with 20% fetal bovine serum (FBS), 2 ng/mL VEGF, 10 ng/mL basic FGF, 100 IU/mL penicillin, and 100 μg/mL streptomycin; all of them were obtained from the American Type Culture Collection (ATCC) and all cell lines were incubated in an atmosphere of 5% CO2 at 37 °C.
(§2) Cells were treated with various concentrations of compound in 96-well culture plates for 24 h in final volumes of 200 μL (5 × 10^3 cells/well). Then 20 μL of MTT solution (5 mg/mL) was added to each well, and cells were incubated for an additional 3 h. Then the medium was carefully removed, and precipitates were dissolved in 150 μL of DMSO, shaken mechanically for 30 min, and then absorbance values at a wavelength of 570 nm were taken on a spectrophotometer (Molecular Devices, Sunnyvale, CA, USA). Values were calculated using percentage of growth versus untreated control. The IC50 was defined as the concentration that caused 50% inhibition of cell proliferation, and was calculated by SAS statistical software.

HCT116 = assay: MTT assay, cell proliferation; format: cell-based; details: read-out: IC50, inhibition of cell proliferation
Procedure: as §1, §2

HeLa = assay: MTT assay, cell proliferation; format: cell-based; details: 24 h, read-out: IC50, inhibition of cell proliferation
Procedure: as §1, §2

HepG2 = assay: MTT assay, cell proliferation; format: cell-based; details: 24 h, read-out: IC50, inhibition of cell proliferation
Procedure: as §1, §2

K562 = assay: MTT assay, cell proliferation; format: cell-based; details: 24 h, read-out: IC50, inhibition of cell proliferation
Procedure: as §1, §2

HUVEC = assay: MTT assay, cell proliferation; format: cell-based, Human; details: 24 h, read-out: IC50, inhibition of cell proliferation
Procedure: Inhibiting the proliferation of ECs is another important strategy for antiangiogenesis. […] As the exposure time of these derivatives was 24 h in the migration assay and 6 h in the tube formation assay, the effect of the incubation for 24 h in the presence of these compounds on HUVECs proliferation was then tested. Cell viability was assessed by the MTT method. We can see from Table 4 that these compounds had different antiproliferative activities.
as §1, §2

LO2 = assay: MTT assay, cytotoxicity; format: cell-based; details: read-out: IC50, inhibition of cell proliferation
Procedure: as §1, §2

[1] = system: transgenic fli-1: enhanced GFP zebrafish embryos; assay: Zebrafish embryo assay: antiangiogenic effects; format: in vivo, zebrafish (Danio rerio); details: zebrafish embryos
Procedure: As stated previously, zebrafish is regarded as a powerful tool in the study of human diseases. […] In this study, all GA derivatives were incubated with the transgenic friend leukemia integration-1 (fli-1): enhanced GFP zebrafish embryos which carried a fli-1 promoter which can drive the expression of GFP in the whole endothelium.
Figure 1 Effects on neovascularization in zebrafish embryos. The transgenic fli-1: enhanced GFP zebrafish embryos in embryo water (0.2 g/L of instant ocean salt in distilled water) incubated with 1 μM of compounds at 6 h postfertilization (hpf) for 24 h. Zebrafish embryos were imaged (Imager.Z1, magnification: left, 40×; right, 100×).
Using transgenic fli-1: enhanced GFP zebrafish embryos, we investigated the effects of all compounds on angiogenesis. […] At about 6 h post fertilization (hpf), the embryos were sorted in the 6-well plate (six embryos/well), removing dead and unhealthy embryos. Then the embryos were treated with the indicated concentrations of compounds which were added into embryo water. After incubation for 24 or 48 h, the embryos were anesthetized using 0.05% 2-phenoxyethanol in embryo water, quantified and photographed.

| Compound | IC50 (A549) | IC50 (HCT116; 24 h) | IC50 (HeLa) | IC50 (HepG2) | IC50 (K562) | IC50 (HUVEC) | IC50 (LO2; 24 h) | IC50 (A549; Homo sapiens) | IC50 (HCT116; Homo sapiens, HCT-116, 24 h) | IC50 (HeLa; Homo sapiens) | IC50 (HepG2; Homo sapiens) | IC50 (K562; Homo sapiens) | IC50 (HUVEC; Homo sapiens) | IC50 (LO2; Homo sapiens, L02, 24 h) | antiangiogenic rates ([1]; 1 μM) | inhibition in vivo at 2.5 µM ([1]; Danio rerio, 2.5 μM, vs vehicle (0.05% DMSO), read-out: Anti-angiogenic phenotype) | inhibition in vivo at 10 µM ([1]; Danio rerio, 10 μM, vs vehicle (0.05% DMSO), read-out: Anti-angiogenic phenotype) |
| --- | --- | --- | --- | --- | --- | --- | --- | --- | --- | --- | --- | --- | --- | --- | --- | --- | --- |
| 3-Ethanonephenyl gambogate [Compound 11] | 3.31 ± 0.45 µM | 3.13 ± 0.3 µM | 3.31 ± 0.24 µM | 3.64 ± 0.53 µM | 2.09 ± 0.19 µM | 3.48 ± 0.18 µM | 3.94 ± 0.19 µM |  |  |  |  |  |  |  |  |  |  |
| CC(C)=CCCC1(C)C=Cc2c(O)c3c(c(CC=C(C)C)c2O1)OC12C(=CC4CC1C(C)(C)OC2(C/C=C(/C)C(=O)Oc1ccc(C)c([N+](=O)[O-])c1)C4=O)C3=O (centres unmarked) [Compound 1, 4-Methyl-3-nitrophenyl gambogate] |  |  |  |  |  |  |  | 43.5 ± 3.92 µM | 25.5 ± 1.79 µM | 32.9 ± 1.69 µM | 30.8 ± 2.76 µM | 10.2 ± 0.48 µM | 45.2 ± 2.64 µM |  |  |  |  |
| CC(C)=CCCC1(C)C=Cc2c(O)c3c(c(CC=C(C)C)c2O1)OC12C(=CC4CC1C(C)(C)OC2(C/C=C(/C)C(=O)Oc1c(Br)ccc(F)c1F)C4=O)C3=O (centres unmarked) [Compound 2, 6-Bromo-2,3-difluorophenyl gambogate] |  |  |  |  |  |  |  | 49.1 ± 5.16 µM | 45.3 ± 4.2 µM | 57 ± 0.62 µM | 41.4 ± 3.52 µM | 16.1 ± 1.74 µM | 31.9 ± 1.27 µM |  |  |  |  |
| C=CCc1ccc(OC(=O)/C(C)=C\CC23OC(C)(C)C4CC(C=C5C(=O)c6c(O)c7c(c(CC=C(C)C)c6OC542)OC(C)(CCC=C(C)C)C=C7)C3=O)c(OC)c1 (centres unmarked) [Compound 3, 4-Allyl-2-methoxyphenyl gambogate] |  |  |  |  |  |  |  | 38 ± 3.1 µM | 18.7 ± 0.97 µM | 13.1 ± 0.77 µM | 28.8 ± 2.84 µM | 8.18 ± 1.22 µM | 52.7 ± 1.15 µM |  |  |  |  |
| CC(=O)c1ccc(OC(=O)/C(C)=C\CC23OC(C)(C)C4CC(C=C5C(=O)c6c(O)c7c(c(CC=C(C)C)c6OC542)OC(C)(CCC=C(C)C)C=C7)C3=O)c([N+](=O)[O-])c1 (centres unmarked) [Compound 5, 2-Nitro-4-ethanonephenyl gambogate] |  |  |  |  |  |  |  | 5.53 ± 0.4 µM | 5.47 ± 0.24 µM | 6.37 ± 0.11 µM | 9.45 ± 1.42 µM | 2.03 ± 0.2 µM | 4.39 ± 0.27 µM | 4.03 ± 0.34 µM |  |  |  |
| CC(C)=CCCC1(C)C=Cc2c(O)c3c(c(CC=C(C)C)c2O1)OC12C(=CC4CC1C(C)(C)OC2(C/C=C(/C)C(=O)Oc1cc2ccccc2oc1=O)C4=O)C3=O (centres unmarked) [Compound 6, Coumarin-3-gambogate] |  |  |  |  |  |  |  | 19.7 ± 2.62 µM | 14.5 ± 1.22 µM | 33.3 ± 1.83 µM | 25.8 ± 1.76 µM | 5.47 ± 0.15 µM | 14.6 ± 0.34 µM | > 20 µM |  |  |  |
| CC(C)=CCCC1(C)C=Cc2c(O)c3c(c(CC=C(C)C)c2O1)OC12C(=CC4CC1C(C)(C)OC2(C/C=C(/C)C(=O)Oc1ccc2ccc(=O)oc2c1)C4=O)C3=O (centres unmarked) [Compound 7, Coumarin-7-gambogate] |  |  |  |  |  |  |  | 15.4 ± 2.57 µM | 6 ± 0.4 µM | 16.1 ± 0.55 µM | 10.8 ± 1.1 µM | 2.5 ± 0.12 µM | 10.9 ± 0.72 µM | 8.28 ± 0.33 µM |  |  |  |
| CC(C)=CCCC1(C)C=Cc2c(O)c3c(c(CC=C(C)C)c2O1)OC12C(=CC4CC1C(C)(C)OC2(C/C=C(/C)C(=O)Oc1cccc([N+](=O)[O-])c1)C4=O)C3=O (centres unmarked) [Compound 8, 3-Nitrophenyl gambogate] |  |  |  |  |  |  |  | > 80 µM | 66.4 ± 1.1 µM | > 80 µM | > 80 µM | 17.9 ± 1.38 µM | 77.5 ± 3.65 µM |  |  |  |  |
| CC(C)=CCC/C(C)=C/COC(=O)/C(C)=C\CC12OC(C)(C)C3CC(C=C4C(=O)c5c(O)c6c(c(CC=C(C)C)c5OC431)OC(C)(CCC=C(C)C)C=C6)C2=O (centres unmarked) [Compound 10, Geraniol gambogate] |  |  |  |  |  |  |  | > 80 µM | > 80 µM | > 80 µM | > 80 µM | > 80 µM | > 80 µM |  |  |  |  |
| CC(C)=CCCC1(C)C=Cc2c(O)c3c(c(CC=C(C)C)c2O1)OC12C(=CC4CC1C(C)(C)OC2(C/C=C(/C)C(=O)Oc1cccc(C#N)c1)C4=O)C3=O (centres unmarked) [Compound 12, 3-Cyanophenyl gambogate] |  |  |  |  |  |  |  | 10.7 ± 0.26 µM | 5.57 ± 0.26 µM | 7.1 ± 1.43 µM | 7.8 ± 0.11 µM | 1.79 ± 0.08 µM | 7.58 ± 1.36 µM | 5.15 ± 1.19 µM |  |  |  |
| COc1ccc(OC(=O)/C(C)=C\CC23OC(C)(C)C4CC(C=C5C(=O)c6c(O)c7c(c(CC=C(C)C)c6OC542)OC(C)(CCC=C(C)C)C=C7)C3=O)cc1 (centres unmarked) [Compound 13, 4-Methoxyphenyl gambogate] |  |  |  |  |  |  |  | 66.8 ± 4.59 µM | 17.5 ± 1.59 µM | > 80 µM | 60.5 ± 4.24 µM | 8.05 ± 0.28 µM | 27.7 ± 2.77 µM |  |  |  |  |
| CC(C)=CCCC1(C)C=Cc2c(O)c3c(c(CC=C(C)C)c2O1)OC12C(=CC4CC1C(C)(C)OC2(C/C=C(/C)C(=O)Oc1cccc(C)c1[N+](=O)[O-])C4=O)C3=O (centres unmarked) [Compound 14, 3-Methyl-2-nitrophenyl gambogate] |  |  |  |  |  |  |  | > 80 µM | 34.8 ± 1.84 µM | > 80 µM | 40.6 ± 2.75 µM | 22.6 ± 0.53 µM | 42 ± 2.76 µM | 70.8 ± 2.47 µM |  |  |  |
| CC(C)=CCCC1(C)C=Cc2c(O)c3c(c(CC=C(C)C)c2O1)OC12C(=CC4CC1C(C)(C)OC2(C/C=C(/C)C(=O)Oc1cccc(C=O)c1)C4=O)C3=O (centres unmarked) [Compound 15, 3-Formylphenyl gambogate] |  |  |  |  |  |  |  | 33 ± 1.5 µM | 6.8 ± 0.78 µM | 62.6 ± 3.12 µM | 10.85 ± 0.06 µM | 6.11 ± 0.39 µM | 13.6 ± 1.16 µM | 14.8 ± 1.19 µM |  |  |  |
| CC(C)=CCCC1(C)C=Cc2c(O)c3c(c(CC=C(C)C)c2O1)OC12C(=CC4CC1C(C)(C)OC2(C/C=C(/C)C(=O)Oc1ccccc1Br)C4=O)C3=O (centres unmarked) [Compound 17, 2-Bromophenyl gambogate] |  |  |  |  |  |  |  | > 80 µM | 33 ± 1.27 µM | > 80 µM | 61.9 ± 2.69 µM | 27 ± 1.41 µM | 29.9 ± 1.44 µM | 72.8 ± 2.84 µM |  |  |  |
| COc1ccc(-c2csc(NC(=O)/C(C)=C\CC34OC(C)(C)C5CC(C=C6C(=O)c7c(O)c8c(c(CC=C(C)C)c7OC653)OC(C)(CCC=C(C)C)C=C8)C4=O)n2)cc1 (centres unmarked) [Compound 31, 4-(4-Methoxyphenyl)thiazol-2-gambogamide] |  |  |  |  |  |  |  | 61.6 ± 1.73 µM | 18.9 ± 1.34 µM | 57.9 ± 2.6 µM | 49.2 ± 4.31 µM | 13.7 ± 0.56 µM | 30.2 ± 2.04 µM |  | inactive | < 25% | 25 to 50% |
